Results published in ChEMBL document CHEMBL1201862, “PubChem BioAssay data set” (2004).
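Interpolation was linear, between the two tested concentrations surrounding the appropriate level; five concentrations were tested over 48 hours in 96-well plates. GI50 is the concentration that inhibits growth by half.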 Activity calls are given as the source filed them. No stated cut-off is given here; in the data, active = GI50 up to about 1.1 µM and inactive = higher.

What was measured:
Experiment in all cases: growth of human tumour cells (NCI), 48 h
[1] = system: 786-0
[2] = system: A549
[3] = system: CAKI-1
[4] = system: EKVX
[5] = system: HCT-116
[6] = system: HOP-62
[7] = system: HOP-92
[8] = system: KM12
[9] = system: NCI-H522
[10] = system: OVCAR-3
[11] = system: OVCAR-8
[12] = system: RPMI-8226
[13] = system: SF-268
[14] = system: SF-295
[15] = system: SK-MEL-28
[16] = system: SN12C
[17] = system: SNB-19
[18] = system: SNB-75
[19] = system: SR
[20] = system: TK-10

Measured: GI50

C=COC(=O)N1C2CCCC(Cl)(C(C)=O)C1CC2 (stereo not given)
inactive: [1] > 100 µM | [2] > 100 µM | [3] > 100 µM | [4] > 100 µM | [5] > 100 µM | [6] > 100 µM | [7] > 100 µM | [8] > 100 µM | [9] > 100 µM | [10] > 100 µM | [11] > 100 µM | [12] > 100 µM | [13] 66.1 µM | [14] > 100 µM | [15] > 100 µM | [16] > 100 µM | [17] > 100 µM | [18] 28.2 µM | [19] > 100 µM | [20] > 100 µM
